This note sets out measurements from the METLIN SMRT retention time set (Domingo-Almenara et al. 2019).

A short description of this series: gradient 5% acetonitrile 3 min, to 50% in 2 min, to 85% in 15 min, held 3 min, 100 µL/min. To be noted: column: Zorbax Extend-C18 2.1 x 50 mm; eluents: water / acetonitrile, 0.1% formic acid. In a few lines:
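Retention times come from adduct peaks that were picked computationally and then checked by hand. The standards, pure and pooled in mixtures of ~100 molecules, were run on a Zorbax Extend-C18 column (2.1 × 50 mm, 1.8 μm) at 100 μL/min with water and acetonitrile, each with 0.1% formic acid. Detection was by quadrupole time-of-flight mass spectrometry in positive and negative ionization mode, with a dead volume of 40 μL and a dwell volume of 900 μL.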
As to `O=C(NCC1(N2CCOCC2)CCOC1)Nc1cc(F)ccc1F` (stereo not given), the RP-LC retention time is 592 s.
The same measure for `CCNC(=O)N1CCc2c([nH]c3ccc(OC)cc23)C12C(=O)N(C)c1ccccc12` (stereo not given): 984 s; for `CCCNC(=O)c1cn(-c2cc(-c3nc(CC)no3)ccn2)cn1`: 780 s; for `O=C1c2ccccc2C(O)(c2ccccc2)N1c1ccncc1` (stereo not given): 702 s.
To `CCNC(=O)c1c2c(nc3ccc(F)cc13)CCCC2` belongs 588 s; to `CCn1cc(-c2ccc(OC)cc2)cc1C(=O)N1CCCCCC1`, 1080 s; to `O=C(NC1(c2nc(-c3ccccc3)no2)CCCCC1)c1cccc(Cl)c1`, 1230 s.
To `O=C(Cc1csc(NC(=O)NC2CCCC2)n1)NCCc1c[nH]c2ccccc12` belongs 754 s; to `O=C1NCCCCCN(C(=O)Cn2c(=O)oc3ccccc32)[C@@H]2C[C@@H](C(=O)N3CCc4ccccc4C3)C[C@H]12`, 864 s.
Molecule `CCN(Cc1ccccc1)S(=O)(=O)c1cc(-c2nc(C)cs2)sc1C` gave an RP-LC retention time of 1200 s.
To `CCNC(=O)Cc1nnc(-c2cccc(F)c2)o1` belongs 656 s.
To `Cc1nnc(-c2ccc3ccn(CC(=O)N4CCN(C(=O)c5ccco5)CC4)c3c2)o1` belongs 674 s.
In the case of `CCOC(=O)c1c(C)[nH]c(CCC(=O)NCc2ccc(C)o2)c1C`, the RP-LC retention time turned out to be 816 s.
To `O=C(NCCCN1CCCC1)C1c2ccccc2CC(=O)N1Cc1ccccc1` (stereo not given) belongs 604 s; to `O=c1c2ccccc2c(-c2nc(-c3cccnc3)no2)nn1-c1ccc(F)cc1`, 998 s; to `Cc1csc(-c2cc(S(=O)(=O)Nc3ccc(Cl)cc3F)cn2CC(=O)N2CCCC2)n1`, 944 s.
To `CCC(C)NC(=O)C1CCCN(C(=O)c2[nH]c(C)c(C(=O)OC(C)C)c2C)C1` (stereo not given) belongs 774 s; to `Cc1cc(C)cc(-n2c(CN3CCN(C(=O)Nc4ccc5c(c4)OCCO5)CC3)nc3cccnc32)c1`, 693 s; to `COCCOCc1nc(C2CCCN2S(=O)(=O)Cc2ccccc2)no1` (stereo not given), 748 s.
The same measure for `CCc1ccc2oc(C(=O)NCC(c3ccccc3)N(C)C)cc(=O)c2c1` (stereo not given): 642 s.
Take `Cc1cc(NC(=O)c2cc(Cl)sc2Cl)n(C(C)C)n1`: the RP-LC retention time was found to be 810 s.
To `CCc1cc(=O)n(CC(=O)Nc2c(C)cccc2C)c(N2CCOCC2)n1` belongs 736 s; to `CCN(CC)C(=O)C1c2cc(OC)c(OC)cc2C(=O)N(C)C1c1ccc(OC)c(OC)c1` (stereo not given), 706 s; to `Cn1ccc(C(=O)N2CCNC(=O)C2(C)C)n1`, 527 s.
The same measure for `CCOC(=O)C1C(=O)C=C(c2cccc(NS(C)(=O)=O)c2)CC1c1cccs1` (stereo not given): 822 s.
`O=C(Cc1cccc(F)c1)N1CCC2(C1)C(=O)Nc1ccccc12` (stereo not given) registered an RP-LC retention time of 713 s.
To `Cc1cc(NC(=O)C(=O)c2cccn2C)ccc1Br` belongs 1120 s; to `CCc1c(C(=O)O)nnn1-c1ccc(C)c(F)c1`, 744 s; to `CCOc1ccc2cccc(NC(=O)C3CCN(S(C)(=O)=O)CC3)c2n1`, 864 s.
The same measure for `COc1ccc(-c2cn3c(CC(=O)N4CCN(c5ccccc5)CC4)csc3n2)cc1OC`: 730 s.
To `CCOC(=O)Cc1ccc(NC(=O)NC2CCN(c3cc(C)cc(C)c3)C2=O)cc1` (stereo not given) belongs 888 s.
For `O=C(c1ccc2ccccc2n1)N1CCN(c2cc(-c3cccnc3)[nH]n2)CC1`, the RP-LC retention time was 602 s.
The same measure for `CCc1noc(NC(C)=O)c1-c1ccc(OC)c(S(=O)(=O)Nc2cc(Cl)ccc2OC)c1`: 876 s; for `O=C(NC1CCN(Cc2ccccc2)CC1)C1CCCN(C(=O)c2cccc(Cl)c2)C1` (stereo not given): 650 s.
The same measure for `COc1ccc(C2C(C(=O)N3CCCC(C)C3)c3cc(OC)c(OC)cc3C(=O)N2C)cc1` (stereo not given): 817 s; for `CN1CCN(C(=O)O[C@H]2c3nccnc3C(=O)N2c2ccc(Cl)cn2)CC1`: 660 s; for `CCCn1c(=O)c(C)nc2cc(-c3noc(CN4C(=O)COc5ccc(Cl)cc54)n3)ccc21`: 1060 s.
To `CC(C)c1ccc(S(=O)(=O)N2CCC(C(=O)NCc3csc(-c4cccs4)n3)CC2)cc1` belongs 1030 s; to `CCOc1ccc(-c2ccc(=O)n(Cc3nc(-c4cccc(OC)c4)no3)n2)cc1`, 949 s; to `COc1ncccc1CNC(=O)Cc1cccnc1`, 538 s.
`COc1cc(CNC(=O)c2nc(CCS(=O)(=O)c3ccc(C)cc3)no2)cc(OC)c1OC`: the RP-LC retention time is 825 s.
The same measure for `CC1(C(=O)NC2CCN(c3cc(N4CCOCC4)cnn3)C2)CCCCC1` (stereo not given): 569 s; for `O=C(Cc1ccc2c(c1)OCO2)Nc1ccc2scnc2c1`: 702 s; for `COc1ccccc1Cc1noc(C2CN(C(=O)c3ccc(Cl)s3)C2)n1`: 892 s.
With `CCN(C(=O)c1cc2c(s1)N(CCOC)CCCC2)C(C)C`, the RP-LC retention time was determined as 1070 s.
The same measure for `CCS(=O)(=O)N1C[C@@H](COC)[C@H](c2ccncc2)C1`: 544 s; for `Cn1ccnc1C(=O)N1CCC(Cc2noc(C3CC3)n2)C1` (stereo not given): 590 s; for `Cc1cccc(OCc2nc(-c3ccc(-c4csc(C)n4)cc3)no2)c1`: 1250 s.
To `CCOc1ccc(-c2cc3c(=O)n(Cc4nc(-c5ccc(C)cc5)no4)ncn3n2)cc1` belongs 784 s; to `O=C(NCC1CCCO1)c1ccc(-c2cnc(Oc3ccc(F)cc3)nc2)cc1` (stereo not given), 793 s; to `Cn1c(CC2CCN(S(=O)(=O)Cc3cccc(Cl)c3)C2)nc2cccnc21` (stereo not given), 656 s.
The same measure for `O=C(NC1CC1)C1CCN(C(=O)c2ncn3c2COC(c2ccc(Cl)cc2)C3)CC1` (stereo not given): 713 s.
The molecule `N#Cc1ccccc1OCC(O)CNCCNC(=O)Nc1ccccc1` (stereo not given) displayed an RP-LC retention time of 696 s.
The same measure for `O=C(O)C(Cc1c[nH]c2ccccc12)N1C(=O)c2ccccc2C1=O` (stereo not given): 858 s.
To `COc1ccc(Cc2nc(-c3ccc4nnc(C)n4c3)no2)cc1Cl` belongs 822 s; to `O=c1ccc(N2CCCC(NS(=O)(=O)c3ccc(F)c(Cl)c3)C2)n[nH]1` (stereo not given), 706 s.
In turn, `Cc1cc(NC(=O)N2CCCC(Cn3cnc4cccnc43)C2)ccc1Br` (stereo not given) displayed an RP-LC retention time of 784 s.
The same measure for `Cc1cccc(CN2CCc3nc(N4CCN(c5ccccc5F)CC4)ncc3C2)c1`: 810 s.
With `CN(C)c1ncncc1N1CCC(C(=O)N2CCCC2)CC1`, the RP-LC retention time worked out at 567 s.
To `O=C(CN1CCN(Cc2ccc(F)cc2)C1=O)NCCc1ccncc1` belongs 596 s.
